{
  "source": "patent US7223759B2",
  "about": "“Antibacterial 3,5-diaminopiperidine-substituted aromatic and heteroaromatic compounds” (Anadys Pharmaceuticals, Inc., priority 2003, dated 2007)",
  "data": [
    {"system": "Escherichia coli (ATCC25922) or Staphylococcus aureus (ATCC25923)", "assay": "Antibacterial MIC, microdilution method in Mueller-Hinton medium", "format": "cell-based", "details": "MIC in E. coli or S. aureus; two-fold serial dilutions 64 to 0.5 μg/ml in duplicate; 18 hours of incubation at 35° C.", "method_in_brief": "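Read after 18 h incubation at 35° C, MIC is the lowest compound level that blocked growth. Compounds were tested in duplicate over 64–0.5 μg/ml two-fold dilutions using Mueller-Hinton microdilution per NCCLS standard.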", "values": [
      {"substance": "N-(4-thioureido-iminomethyl-phenyl)-4,6-Bis-((3R,5S)-3,5-diamino-piperidin-1-yl)-[1,3,5]triazine-2-amine", "Potency (MIC)": "+ (+ means MIC<64 μg/ml in E. coli or S. aureus)"},
      {"substance": "N-[4-(cyclohexanecarbonyl-amino)-3-hydroxy-phenyl]-4,6-Bis-((3R,5S)-3,5-0diamino-piperidin-1-yl)-[1,3,5]triazine-2-amine", "Potency (MIC)": "+ (+ means MIC<64 μg/ml in E. coli or S. aureus)"},
      {"substance": "carboxylic acid {4-[4-((2S,4S)-4-amino-2-hydroxymethyl-pyrrolidin-1-yl)-6-((3R,5S)-3,5-diamino-piperidin-1-yl)-[1,3,5]triazine-2-ylamino]-phenyl}-amide", "Potency (MIC)": "++ (++ means MIC<16 μg/ml in E. coli or S. aureus)"}
    ]}
  ]
}
